Experimental data published in US11203582B2, “Benzamide derivatives for inhibiting endoplasmic reticulum (ER) stress” (The Board of Regents of the University of Oklahoma, priority 2017, dated 2021).
Like-named read-outs stand apart in the source and are kept apart here.

System: INS-1 cells
Experiment: Cell survival assay, intracellular ATP (CellTiter-Glo), INS-1 cells treated with Tm
Assay type: cell-based, rat
Settings: for EC50: read-out: EC50; for Maximum activity (% rescue): Tm alone 0%, DMSO control 100%
Procedure: A structure-activity-relationship (SAR) study was thus conducted to improve the weak potency of lead compound 1. Newly synthesized or commercially available compounds were tested for their β-cell-protective activity against ER stress in rat INS-1 β-cells. […] The maximum activities and the concentrations that reach half-maximal activity (EC50) of the compounds were evaluated by the degree of increase in viability of INS-1 cells co-treated with the compounds in the presence of Tm compared with Tm treatment alone. Maximum activity value in the tables is reported as % rescue from Tm (0.1 μg/mL)-induced reduction of cell viability. The values for Tm treatment alone and control (DMSO, without Tm) treatment are designated as 0% and 100%, respectively in all tables. EC50 values (the concentrations that reach half-maximal activity) for INS-1 cell viability were calculated with GraphPad Prism from the data of ten 2-fold serial titration points in all tables. All experiments were performed in triplicate in all tables.
INS-1 cells were cultured in RPMI 1640 (Corning, N.Y., USA) supplemented with 10% FBS (Atlanta Biologicals, Norcross, Ga.), HEPES (10 mM, Life Technologies, CA, USA), sodium pyruvate (1 mM, Corning), 2-mercaptoethanol (50 μM, Sigma, St Louis, Mo., USA) and antibiotics (100 UI/mL penicillin and 100 μg/mL streptomycin, Corning). βTC6 cells were cultured in DMEM (Corning) with 15% FBS, sodium pyruvate (1 mM, Corning), non-essential amino acids (1 mM, Thermo, Ill., USA), GlutaMAX (1 mM, Life Technologies) and antibiotics (100 UI/mL penicillin and 100 μg/mL streptomycin). All cells were grown at 37° C. in a humidified 5% CO2 atmosphere.
INS-1 cells or βTC6 cells were seeded at 3×10^3 cells/well in a 384-well plate and treated with compounds at the indicated concentrations. After 3 d treatment, the medium was aspirated and 20 μL/well of CellTiter-Glo reagent (Promega, WI, USA) was added for the detection of intracellular ATP levels. Cell viability was measured with an EnVision multilabel plate reader (PerkinElmer, MA, USA).

[1] = INS-1 cells, Tm-induced ER stress
[2] = Table 3, INS-1 cell viability, Tm 0.1 μg/mL, 72 h
[3] = Table 3, INS-1 cells, Tm 0.1 μg/mL, 72 h
[4] = Table 4, INS-1 cell viability, Tm 0.1 μg/mL, 72 h
[5] = Table 4, INS-1 cells, Tm 0.1 μg/mL, 72 h
[6] = Table 5, INS-1 cell viability, Tm 0.1 μg/mL, 72 h
[7] = Table 5, INS-1 cells, Tm 0.1 μg/mL, 72 h

SMILES	EC50 [6]	Maximum activity (% rescue) [7]	also measured
O=C(NCCc1ccccc1)c1ccc(CN2CCCCC2)cc1 [Compound 10l]			maximum activity (β-cell-protective activity) [1]: 87%; EC50 [1]: 21 µM; EC50 [2]: 21 ± 3.5 µM; Maximum activity (% rescue) [3]: 87% ± 9%; EC50 [4]: 21 ± 3.5 µM; Maximum activity (% rescue) [5]: 87% ± 6%
O=C(NCCc1ccccc1)c1ccc(Cl)c(Cl)c1 [Compound 10m]			EC50 [2]: 17 ± 6.1 µM; Maximum activity (% rescue) [3]: 42% ± 11%
COc1ccc(C(=O)NCCc2ccccc2)cc1C [Compound 10n]			EC50 [2]: 15 ± 3.2 µM; Maximum activity (% rescue) [3]: 56% ± 8%
O=C(NCCc1ccccc1)c1ccc(F)c(F)c1F [Compound 10o]			EC50 [2]: 9.9 ± 2.1 µM; Maximum activity (% rescue) [3]: 23% ± 6%
O=C(NCCc1ccccc1)c1cc(F)c(F)c(F)c1F [Compound 10p]			Maximum activity (% rescue) [3]: <0 % rescue
O=C(NCCc1ccc(Cl)cc1)c1ccc(CN2CCCCC2)cc1 [Compound 11a]			EC50 [4]: 21 ± 4.2 µM; Maximum activity (% rescue) [5]: 82% ± 10%
O=C(NCCc1ccc(Cl)c(Cl)c1)c1ccc(CN2CCCCC2)cc1 [Compound 11b]			EC50 [1]: 24 ± 2.7 µM; Maximum activity (% rescue) [5]: 71% ± 11%
O=C(NCc1ccc(Cl)cc1)c1ccc(CN2CCCCC2)cc1 [Compound 11c]			EC50 [4]: 9.5 ± 1.1 µM; Maximum activity (% rescue) [5]: 77% ± 7%
O=C(NCc1ccc(Cl)c(Cl)c1)c1ccc(CN2CCCCC2)cc1 [Compound 11d]			EC50 [1]: 1.8 ± 0.2 µM; Maximum activity (% rescue) [5]: 78% ± 10%; improvement of EC50 value over the corresponding ethylene derivative (methylene vs ethylene linker (9e vs 8d; 11d vs 11b)): 13 fold
O=C(NCc1ccc(Cl)cc1)c1ccccc1CN1CCCCC1 [Compound 12a]	6.9 ± 1.2 µM	73% ± 13%	
O=C(NCc1ccccc1)c1cccc(CN2CCCCC2)c1 [Compound 12b]	0.352 ± 0.062 µM	95% ± 8%	
O=C(NCc1ccccc1Cl)c1cccc(CN2CCCCC2)c1 [Compound 12c]	2.04 ± 0.18 µM	93% ± 7%	
O=C(NCc1cccc(Cl)c1)c1cccc(CN2CCCCC2)c1 [Compound 12d]	0.405 ± 0.057 µM	90% ± 11%	
O=C(NCc1ccc(Cl)cc1)c1cccc(CN2CCCCC2)c1 [Compound 12e]	0.24 ± 0.06 µM	93% ± 13%	
O=C(NCc1ccccc1Cl)c1ccc(CN2CCCCC2)cc1 [Compound 12f]	13 ± 1.6 µM	87% ± 15%	
O=C(NCc1cccc(Cl)c1)c1ccc(CN2CCCCC2)cc1 [Compound 12g]	2.2 ± 0.3 µM	80% ± 9%	
O=C(NCc1cccc(Br)c1)c1ccc(CN2CCCCC2)cc1 [Compound 12h]	4.9 ± 0.7 µM	81% ± 12%	
COc1cccc(CNC(=O)c2cccc(CN3CCCCC3)c2)c1 [Compound 13a]	0.964 ± 0.135 µM	92% ± 10%	
COc1ccc(CNC(=O)c2cccc(CN3CCCCC3)c2)cc1 [Compound 13b]	1.12 ± 0.21 µM	93% ± 5%	
O=C(NCc1cccc(C(F)(F)F)c1)c1cccc(CN2CCCCC2)c1 [Compound 13c]	0.246 ± 0.043 µM	91% ± 14%	
